The text below walks through data of article PMC12568646, “Enzymatic combinatorial synthesis of E-64 and related cysteine protease inhibitors” (Nature Chemical Biology, 2025).

For one test, the target named is T1, Cp1D (Aspergillus flavus, UniProt A0A7U2QR00).
T1 construct: gene F9C07_2276917; full-length intron-free ORF in pET28a, 6xHis-tagged, expressed in E. coli BL21(DE3)
T1 sequence (A0A7U2QR00 1-463): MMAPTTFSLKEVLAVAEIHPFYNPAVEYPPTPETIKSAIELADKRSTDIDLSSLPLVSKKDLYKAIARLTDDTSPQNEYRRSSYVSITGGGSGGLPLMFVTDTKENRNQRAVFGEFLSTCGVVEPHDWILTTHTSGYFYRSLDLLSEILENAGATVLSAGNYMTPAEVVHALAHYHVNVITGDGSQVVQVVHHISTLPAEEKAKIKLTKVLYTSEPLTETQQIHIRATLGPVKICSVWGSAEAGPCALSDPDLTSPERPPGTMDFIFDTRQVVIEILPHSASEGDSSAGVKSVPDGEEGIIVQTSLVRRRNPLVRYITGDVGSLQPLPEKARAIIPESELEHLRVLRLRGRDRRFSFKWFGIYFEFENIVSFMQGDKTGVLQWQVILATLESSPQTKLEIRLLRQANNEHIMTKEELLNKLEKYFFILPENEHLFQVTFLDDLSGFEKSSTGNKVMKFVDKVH
The test is described as follows: LC-MS of amide product formation. It counts as biochemical. The note with it: 5 mM agmatine, 10 mM ATP, 10 mM MgCl2, 50 mM sodium phosphate pH 8.0, 30 °C.

For a further test, the target named is T2, papain (Carica papaya, UniProt P00784).
T2 construct: mature native enzyme, twice-crystallized from papaya latex (Sigma)
T2 sequence (P00784 134-345): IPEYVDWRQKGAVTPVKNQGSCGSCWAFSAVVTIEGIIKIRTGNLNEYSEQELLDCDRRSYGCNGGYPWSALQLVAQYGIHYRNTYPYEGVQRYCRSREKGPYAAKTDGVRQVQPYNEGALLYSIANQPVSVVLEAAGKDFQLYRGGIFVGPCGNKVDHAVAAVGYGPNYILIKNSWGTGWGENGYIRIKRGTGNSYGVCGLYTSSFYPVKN
The test is described as follows: X-ray co-crystal structure. It counts as binding. The following applies: covalent, active-site Cys25.

For the next test, the target named is T3, cathepsin B (Homo sapiens, UniProt P07858).
T3 construct: gene CTSB
The test is described as follows: fluorogenic Z-Phe-Arg-AMC assay. It counts as biochemical. The note with it: 40 μM Z-Phe-Arg-AMC, citrate phosphate pH 5.5, 5 mM DTT, 37 °C; covalent, irreversible.

For another test, the system named is T4, Cp1B.
T4 construct: full-length intron-free ORF in pET28a (pML8010), 6xHis-tagged, expressed in E. coli BL21(DE3); domains span residues 5-502
Briefly: X-ray crystal structure, […] Å. Also noted: species or system Aspergillus flavus. The following applies: ATP-binding site; crystal set up with ATP, MgCl2 and (±)-t-ES; MES also bound.

In the case of `CC[C@H](C)[C@H](NC(=O)[C@@H]1O[C@H]1C(=O)O)C(=O)O` [(2R,3R)-t-ES-L-Ile], on Cp1D, the “KM (apparent)” value is reported as “much more efficient compared to that toward (2R,3R)-t-ES-L-Ile”.

In general, IC50 refers to the concentration needed to halve the response being measured. For `NCCCCCCCCNC(=O)[C@@H](NC(=O)[C@H]1O[C@@H]1C(=O)O)C1CCC1` [(2S,3S)-t-ES-a9-b7], the X-ray co-crystal structure result at papain is “(2S,3S)-t-ES-a9-b7 was observed to be bound covalently to the active site cysteine”. On cathepsin B, this compound had an IC50 of 14 ± 1.1 nM.

As to `Nc1ncnc2c1ncn2[C@@H]1O[C@H](CO)[C@@H](O)[C@H]1O` [adenosine], the “X-ray crystal structure, 2.7 Å” value in the test with Cp1B is “crystal structure of Cp1B complexed with adenosine and 2-morpholinoethanesulfonic acid (MES) was determined”.
